From patent US20210045385A1, “PYRIDAZINONE-SUBSTITUTED KETOXIMES AS HERBICIDES” (FMC Corporation, priority 2018, published 2021)

Tests used:
[1] = test system: foxtail, green (green foxtail, Setaria viridis); test: Test C preemergence, visual plant response rating; type: in vivo
Outline: (§1)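 Compounds in a non-phytotoxic solvent with surfactant were applied as a directed soil spray preemergence or to 2–10 cm, one- to two-leaf plants postemergence, in loam–sand soil. After about 10 d in a greenhouse, injury was visually rated against untreated controls on a 0–100 scale (100 = complete control).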

[2] = test system: barnyardgrass (Echinochloa crus-galli); test: Test C preemergence, visual plant response rating; type: in vivo
Outline: as §1

[3] = test system: Italian ryegrass (Lolium mutiflorum); test: Test C preemergence, visual plant response rating; type: in vivo
Outline: as §1

[4] = test system: pigweed (Amaranthus retroflexus); test: Test C preemergence, visual plant response rating; type: in vivo
Outline: as §1

kochia (Bassia scoparia) [5] = test: Test C preemergence, visual plant response rating; type: in vivo
Outline: as §1

[6] = test system: ragweed (common ragweed, Ambrosia artemisiifolia); test: Test C preemergence, visual plant response rating; type: in vivo
Outline: as §1

[7] = test system: barnyardgrass (Echinochloa crus-galli); test: Test D flooded paddy test, visual plant response rating; type: in vivo; conditions: 250 g ai/ha, scale 0 to 100 (0 no effect, 100 complete control), 13 to 15 d
Outline: (§2)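 Plants were grown to the 2-leaf stage, pots flooded to 3 cm above soil, and compound applied directly into the paddy water, with the depth held throughout. After 13 to 15 d in a greenhouse, response was rated visually against untreated controls on a 0–100 scale (0 no effect, 100 complete control).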

rice (Oryza sativa) [8] = test: as above; type: in vivo; conditions: 250 g ai/ha, scale 0 to 100 (0 no effect, 100 complete control), 13 to 15 d
Outline: as §2

[9] = test system: duck salad (Heteranthera limosa); test: as above; type: in vivo; conditions: 250 g ai/ha, scale 0 to 100 (0 no effect, 100 complete control), 13 to 15 d
Outline: as §2

[10] = test system: sedge umbrella (small-flower umbrella sedge, Cyperus difformis); test: as above; type: in vivo; conditions: 250 g ai/ha, scale 0 to 100 (0 no effect, 100 complete control), 13 to 15 d
Outline: as §2

[11] = test system: foxtail, green (green foxtail, Setaria viridis); test: Test C postemergence, visual plant response rating; type: in vivo
Outline: as §1

[12] = test system: barnyardgrass (Echinochloa crus-galli); test: Test C postemergence, visual plant response rating; type: in vivo; conditions: Test C, postemergence
Outline: as §1

corn (Zea mays) [13] = test: Test C postemergence, visual plant response rating; type: in vivo; conditions: Test C, postemergence
Outline: as §1

[14] = test system: Italian ryegrass (Lolium mutiflorum); test: Test C postemergence, visual plant response rating; type: in vivo; conditions: Test C, postemergence
Outline: as §1

[15] = test system: pigweed (Amaranthus retroflexus); test: Test C postemergence, visual plant response rating; type: in vivo; conditions: Test C, postemergence
Outline: as §1

[16] = test system: wheat (Triticum aestivum); test: Test C postemergence, visual plant response rating; type: in vivo; conditions: Test C, postemergence
Outline: as §1

[17] = test system: blackgrass (Alopecurus myosuroides); test: Test C postemergence, visual plant response rating; type: in vivo; conditions: Test C, postemergence
Outline: as §1

kochia (Bassia scoparia) [18] = test: Test C postemergence, visual plant response rating; type: in vivo; conditions: Test C, postemergence
Outline: as §1

[19] = test system: ragweed (common ragweed, Ambrosia artemisiifolia); test: Test C postemergence, visual plant response rating; type: in vivo; conditions: Test C, postemergence
Outline: as §1

kochia (Kochia scoparia) [20] = test: Test A preemergence, visual plant response rating; type: in vivo
Outline: (§3)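 Ratings 0–100 (100 = complete control), visual, vs untreated controls at ~10 days. Application pre- or postemergence; solvent mixture with surfactant; loam/sand medium.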

[21] = test system: barnyardgrass (Echinochloa crus-galli); test: Test A preemergence, visual plant response rating; type: in vivo
Outline: as §3

[22] = test system: Italian ryegrass (Lolium multiflorum); test: Test A preemergence, visual plant response rating; type: in vivo
Outline: as §3

[23] = test system: foxtail, giant (giant foxtail, Setaria faberii); test: Test A preemergence, visual plant response rating; type: in vivo
Outline: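 Preemergence: seeds in loam/sand blend given directed soil spray of compound in non-phytotoxic solvent with surfactant. Postemergence: plants 2–10 cm, one- to two-leaf stage, sprayed with same formulation. Visual injury rated vs untreated controls after ~10 days in greenhouse, 0 (no effect) to 100 (complete control).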

[24] = test system: pigweed (Amaranthus retroflexus); test: Test A preemergence, visual plant response rating; type: in vivo
Outline: as §3

kochia (Kochia scoparia) [25] = test: Test A postemergence, visual plant response rating; type: in vivo
Outline: as §3

[26] = test system: barnyardgrass (Echinochloa crus-galli); test: Test A postemergence, visual plant response rating; type: in vivo
Outline: as §3

corn (Zea mays) [27] = test: Test A postemergence, visual plant response rating; type: in vivo
Outline: as §3

[28] = test system: ragweed (common ragweed, Ambrosia elatior); test: Test A postemergence, visual plant response rating; type: in vivo
Outline: as §3

[29] = test system: galium (catchweed bedstraw, Galium aparine); test: Test A postemergence, visual plant response rating; type: in vivo
Outline: as §3

[30] = test system: Italian ryegrass (Lolium multiflorum); test: Test A postemergence, visual plant response rating; type: in vivo
Outline: as §3

[31] = test system: foxtail, giant (giant foxtail, Setaria faberii); test: Test A postemergence, visual plant response rating; type: in vivo
Outline: as §3

[32] = test system: pigweed (Amaranthus retroflexus); test: Test A postemergence, visual plant response rating; type: in vivo
Outline: as §3

[33] = test system: wheat (Triticum aestivum); test: Test A postemergence, visual plant response rating; type: in vivo
Outline: as §3

[34] = test system: blackgrass (Alopecurus myosuroides); test: Test A postemergence, visual plant response rating; type: in vivo
Outline: as §3

[35] = test system: barnyardgrass (Echinochloa crus-galli); test: Test B flooded paddy test, visual plant response rating; type: in vivo; conditions: 250 g ai/ha, Flood, applied to paddy water, 2-leaf stage, evaluated after 13 to 15 days
Outline: (§4)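 Visual scores compare treated plants with controls after 13 to 15 days of greenhouse growth. Treatment was made into paddy water standing 3 cm above the soil, with plants at the 2-leaf stage and flooding maintained throughout.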

[36] = test system: sedge, umbrella (small-flower umbrella sedge, Cyperus difformis); test: as above; type: in vivo; conditions: 250 g ai/ha, Flood, applied to paddy water, 2-leaf stage, evaluated after 13 to 15 days
Outline: as §4

rice (Oryza sativa) [37] = test: as above; type: in vivo; conditions: 250 g ai/ha, Flood, applied to paddy water, 2-leaf stage, evaluated after 13 to 15 days
Outline: as §4

[38] = test system: ducksalad (Heteranhera limosa); test: as above; type: in vivo; conditions: 250 g ai/ha, Flood, applied to paddy water, 2-leaf stage, evaluated after 13 to 15 days
Outline: as §4

[39] = 125 g ai/ha, preemergence, 0 to 100 scale, 0 no effect, 100 complete control
[40] = 500 g ai/ha Preemergence, approx. 10 days
[41] = 500 g ai/ha, postemergence, 0 is no effect, 100 is complete control
[42] = Postemergence, 125 g ai/ha, 0 to 100 scale (0 no effect, 100 complete control)

In the case of `Cc1nn(C)c(=O)c(/C(=N\OCc2ccccc2)c2cccc(Cl)c2)c1O` [Compound 149], the “Foxtail, Green plant response rating (0 to 100 scale)” value (from here on “Foxtail, Green plant response rating”) ([1]; 125 g ai/ha) is reported as 0, the “Foxtail, Green plant response rating” value ([1]; 500 g ai/ha) is reported as 0 and the “Barnyardgrass plant response rating (0 to 100 scale)” value ([2]; 125 g ai/ha) is reported as 0. The “Barnyardgrass plant response rating (0 to 100 scale)” value ([2]; 500 g ai/ha) was 0, the “Ryegrass, Italian plant response rating (0 to 100 scale)” value (“Ryegrass … (0 to 100 scale)” for short) ([3]; 125 g ai/ha) was 0 and the “Ryegrass … (0 to 100 scale)” value ([3]; 500 g ai/ha) was 0. For the same molecule, the “Pigweed plant response rating (0 to 100 scale)” value ([4]; 125 g ai/ha) was 0, the “Pigweed plant response rating (0 to 100 scale)” value ([4]; 500 g ai/ha) was 20 and the “Kochia plant response rating (0 to 100 scale)” value (kochia (Bassia scoparia) [5]; 125 g ai/ha) was 0. The “Kochia plant response rating (0 to 100 scale)” value (kochia (Bassia scoparia) [5]; 500 g ai/ha) was 0, the “Ragweed plant response rating (0 to 100 scale)” value ([6]; 125 g ai/ha) was 0 and the “Ragweed plant response rating (0 to 100 scale)” value ([6]; 500 g ai/ha) was 0. For the same molecule, the “Plant response rating, Barnyardgrass (Flood)” value [7] was 0, the “Plant response rating, Rice (Flood)” value (rice (Oryza sativa) [8]) was 0 and the “Plant response rating, Ducksalad (Flood)” value [9] was 0. The “Plant response rating, Sedge, Umbrella (Flood)” value [10] was 0, the “Foxtail, Green plant response rating” value ([11]; 125 g ai/ha) was 0 and the “Foxtail, Green plant response rating” value ([11]; 500 g ai/ha) was 0. The “Barnyardgrass plant response rating (0 to 100 scale)” value ([12]; 125 g ai/ha) was 0, the “Barnyardgrass plant response rating (0 to 100 scale)” value ([12]; 500 g ai/ha) was 0 and the “Corn plant response rating (0 to 100 scale)” value (corn (Zea mays) [13]; 125 g ai/ha) was 0. For the same molecule, the “Corn plant response rating (0 to 100 scale)” value (corn (Zea mays) [13]; 500 g ai/ha) was 0, the “Ryegrass … (0 to 100 scale)” value ([14]; 125 g ai/ha) was 0 and the “Ryegrass … (0 to 100 scale)” value ([14]; 500 g ai/ha) was 10. For the same molecule, the “Pigweed plant response rating (0 to 100 scale)” value ([15]; 125 g ai/ha) was 0, the “Pigweed plant response rating (0 to 100 scale)” value ([15]; 500 g ai/ha) was 0 and the “Wheat plant response rating (0 to 100 scale)” value ([16]; 125 g ai/ha) was 0. For the same molecule, the “Wheat plant response rating (0 to 100 scale)” value ([16]; 500 g ai/ha) was 0, the “Blackgrass plant response rating (0 to 100 scale)” value ([17]; 125 g ai/ha) was 0 and the “Blackgrass plant response rating (0 to 100 scale)” value ([17]; 500 g ai/ha) was 0. For the same molecule, the “Kochia plant response rating (0 to 100 scale)” value (kochia (Bassia scoparia) [18]; 125 g ai/ha) was 0, the “Kochia plant response rating (0 to 100 scale)” value (kochia (Bassia scoparia) [18]; 500 g ai/ha) was 0 and the “Ragweed plant response rating (0 to 100 scale)” value ([19]; 125 g ai/ha) was 0. The “Ragweed plant response rating (0 to 100 scale)” value ([19]; 500 g ai/ha) was 0.

In the case of `CO/N=C(\c1c(O)c(C)nn(C)c1=O)c1cc(Br)cc2ccccc12` [Compound 91, 4-[(Z)-(3-bromo-1-naphthalenyl)(methoxyimino)methyl]-5-hydroxy-2,6-dimethyl-3(2H)-pyridazinone], the “Kochia plant response rating” value (kochia (Kochia scoparia) [20]; [39]) is reported as 60, the “Kochia plant response rating (0 to 100 scale)” value (kochia (Kochia scoparia) [20]; [40]) is reported as 60 and the “Barnyardgrass plant response rating” value [21, 39] is reported as 100. For the same molecule, the “Barnyardgrass plant response rating (0 to 100 scale)” value [21, 40] was 100, the “Ryegrass, Italian plant response rating” value [22, 39] was 80 and the “Ryegrass … (0 to 100 scale)” value [22, 40] was 100. The “Foxtail, Giant plant response rating” value [23, 39] was 100, the “Foxtail, Giant plant response rating (0 to 100 scale)” value [23, 40] was 100 and the “Pigweed plant response rating” value [24, 39] was 100. For the same molecule, the “Pigweed plant response rating (0 to 100 scale)” value [24, 40] was 100, the “Kochia plant response rating (0 to 100 scale)” value (kochia (Kochia scoparia) [25]; [41]) was 80 and the “Kochia plant response rating” value (kochia (Kochia scoparia) [25]; [42]) was 60. The “Barnyardgrass plant response rating (0 to 100 scale)” value [26, 41] was 80, the “Barnyardgrass plant response rating” value [26, 42] was 80 and the “Corn plant response rating (0 to 100 scale)” value (corn (Zea mays) [27]; [41]) was 70. The “Corn plant response rating” value (corn (Zea mays) [27]; [42]) was 30, the “Ragweed plant response rating (0 to 100 scale)” value [28, 41] was 100 and the “Ragweed plant response rating” value [28, 42] was 100. For the same molecule, the “Galium plant response rating (0 to 100 scale)” value [29, 41] was 100, the “Galium plant response rating” value [29, 42] was 100 and the “Ryegrass … (0 to 100 scale)” value [30, 41] was 100. The “Ryegrass, Italian plant response rating” value [30, 42] was 100, the “Foxtail, Giant plant response rating (0 to 100 scale)” value [31, 41] was 90 and the “Foxtail, Giant plant response rating” value [31, 42] was 80. For the same molecule, the “Pigweed plant response rating (0 to 100 scale)” value [32, 41] was 90, the “Pigweed plant response rating” value [32, 42] was 80 and the “Wheat plant response rating (0 to 100 scale)” value [33, 41] was 80. For the same molecule, the “Wheat plant response rating” value [33, 42] was 50, the “Blackgrass plant response rating (0 to 100 scale)” value [34, 41] was 100 and the “Blackgrass plant response rating” value [34, 42] was 100. For the same molecule, the melting point was 129 to 133 °C, the “Plant response rating, Barnyardgrass (0 to 100 scale, 0 is no effect, 100 is complete control)” value [35] was 65 and the “Plant response rating, Sedge, Umbrella (0 to 100 scale, 0 is no effect, 100 is complete control)” value [36] was 60. For the same molecule, the “Plant response rating, Rice (0 to 100 scale, 0 is no effect, 100 is complete control)” value (rice (Oryza sativa) [37]) was 20 and the “Plant response rating, Ducksalad (0 to 100 scale, 0 is no effect, 100 is complete control)” value [38] was 60.
